The values that follow are results of earlier work, collected in paper PMC12697872, “Rethinking the AI Paradigm for Solubility Prediction of Drug‑Like Compounds with Dual‐Perspective Modeling and Experimental Validation” (Advanced Science, 2025).

The conditions of the first series: discarded ambiguous entries of DrugBank database; ref DrugBank database (version 5.1.12) 24; cited from earlier work.
On to `O=C(O)c1ccc2nc(-c3cc(Cl)cc(Cl)c3)oc2c1` [594839-88-0], for which the Experimental solubility is more than 50 mg/mL.

In the case of `CN(CCN1CCC(OC(=O)Nc2ccccc2-c2ccccc2)CC1)C(=O)c1ccc(CN2CCC(C(N)=O)CC2)cc1` [864750-70-9], the Experimental solubility is recorded as less than 1 mg/ml mg/mL.

Still in this series, the particulars now being: experimental aqueous solubility as logS, sheet "DrugBank" of Supplement 2; ref DrugBank; cited from earlier work.
Take `CC1(C)O[C@@H]2[C@@H](CO[C@@]3(COS(N)(=O)=O)OC(C)(C)O[C@@H]23)O1` [Topiramate]: the ex_logS is given as -1.539.

For the molecule `CNC(=O)Oc1ccc2c(c1)[C@]1(C)CCN(C)[C@@H]1N2C` [Physostigmine], the ex_logS is -1.55.

For the molecule `CC(C(=O)O)c1ccc(N2Cc3ccccc3C2=O)cc1` (stereo not shown) [indoprofen], the ex_logS is on record as -4.82.

As for `COc1cc(C(=O)NCc2ccc(OCCN(C)C)cc2)cc(OC)c1OC` [Trimethobenzamide], the ex_logS is on record as -3.987.

On to `NCCc1ccc(O)c(O)c1` [Dopamine], for which the ex_logS is reported as 0.593.

As for `CNCCCN1c2ccccc2CCc2ccccc21` [Desipramine], the ex_logS is -3.658.

Turning to `Cn1nnc2c(C(N)=O)ncn2c1=O` [Temozolomide], the ex_logS is -1.581.

Take `CC(=O)CC(c1ccccc1)c1c(O)c2ccccc2oc1=O` (stereo not shown) [warfarin]: the ex_logS is on record as -4.26.

As to `CCCCCCCCCCCC(=O)O` [Lauric acid], the ex_logS is recorded as -4.62.

For `COc1ccc(CCN2CCC(Nc3nc4ccccc4n3Cc3ccc(F)cc3)CC2)cc1` [Astemizole], the ex_logS is reported as -3.026.

For `O=C1NC(=O)C(c2ccccc2)(c2ccccc2)N1` [phenytoin], the ex_logS was -3.99.

For the molecule `CC(=O)Oc1ccccc1C(=O)O` [Acetylsalicylic acid], the ex_logS was -1.6122.

In the case of `NC1(C(=O)O)CCCC1` [Cycloleucine], the ex_logS is -0.4121.

As for `Cc1cccc(C)c1NC(=O)C1CCCCN1C` (stereo not shown) [Mepivacaine], the ex_logS was -1.991.

Regarding `CN1c2c(nc(N)[nH]c2=O)NC[C@@H]1CNc1ccc(C(=O)N[C@@H](CCC(=O)O)C(=O)O)cc1` [Levomefolic acid], the ex_logS is -3.185.

Consider `Nc1ccn([C@@H]2CS[C@H](CO)O2)c(=O)n1` [Lamivudine], for which the ex_logS is -0.5152.

As to `CC(C)[C@@H]1CC[C@@H](C)C[C@H]1O` [Levomenthol], the ex_logS is on record as -2.504.

Turning to `CCOC(=O)c1cncn1[C@H](C)c1ccccc1` [Etomidate], the ex_logS is recorded as -3.587.

For the molecule `NCC[C@H](O)C(=O)N[C@@H]1C[C@H](N)[C@@H](O[C@H]2O[C@H](CN)[C@@H](O)[C@H](O)[C@H]2O)[C@H](O)[C@H]1O[C@H]1O[C@H](CO)[C@@H](O)[C@H](N)[C@H]1O` [Amikacin], the ex_logS is -1.069.

On to `O=C(O)c1ccccc1Nc1cccc(C(F)(F)F)c1` [Flufenamic acid], for which the ex_logS is -4.4905.

With `CCN(CC)CCOC(=O)c1ccc(N)cc1` [procaine], the ex_logS is listed as -1.78.

As to `CCOC(=O)[C@H](CCc1ccccc1)N[C@H]1CCCN2CCC[C@@H](C(=O)O)N2C1=O` [Cilazapril], the ex_logS is -1.922.

As to `CC(=O)Oc1c(C)cc(OCC(O)CNC(C)C)c(C)c1C` (stereo not shown) [Metipranolol], the ex_logS was -2.72.

For `O=C(O)[C@H]1O[C@@H](O)[C@H](O)[C@@H](O)[C@@H]1O` [beta-D-glucuronic acid], the ex_logS was 0.3976.

For the molecule `Cc1ccc(/C(=C\CN2CCCC2)c2ccccn2)cc1` [Triprolidine], the ex_logS is listed as -3.57.

Regarding `Nc1ccc(S(=O)(=O)Nc2ncccn2)cc1` [Sulfadiazine], the ex_logS was -3.512.

On to `O=C(O)c1cc(-c2ccc(F)cc2F)ccc1O` [Diflunisal], for which the ex_logS is reported as -4.237.

With `CN(C)/N=N/c1[nH]cnc1C(N)=O` [Dacarbazine], the ex_logS is recorded as -1.6352.

Staying with this series, now noted: experimental aqueous solubility as logS, sheet "DrugBank"; ref DrugBank database; cited from earlier work.
Turning to `OC[C@@H](O)[C@@H](O)[C@H](O)[C@H](O)CO` [Mannitol], the ex_logS is reported as 0.07397.

Turning to `CC1(C)CCC(C)(C)c2cc(Cn3cccn3)c(/C=C/c3ccc(C(=O)O)cc3)cc21` [Palovarotene], the ex_logS is given as -7.016.

As for `COc1cc(NCc2ccc3nc(N)nc(N)c3c2C)cc(OC)c1OC` [Trimetrexate], the ex_logS is -4.071.

As for `CCC1(CC)C(=O)NCC(C)C1=O` (stereo not shown) [Methyprylon], the ex_logS is on record as -1.202.

Take `CC(C)(C#N)c1cc(Cn2cncn2)cc(C(C)(C)C#N)c1` [Anastrozole]: the ex_logS is reported as -2.743.

For `COc1cccc2c1C(=O)c1c(O)c3c(c(O)c1C2=O)C[C@@](O)(C(=O)CO)C[C@@H]3O[C@H]1C[C@H](N)[C@@H](O)[C@H](C)O1` [Epirubicin], the ex_logS is -3.767.

Regarding `N[C@@H](Cc1c[nH]c2ccccc12)C(=O)O` [Tryptophan], the ex_logS was -1.183.

Turning to `CC1=NS(=O)(=O)c2cc(Cl)ccc2N1` [Diazoxide], the ex_logS was -1.908.

As to `C[C@@H](N)C(=O)O` [D-Alanine], the ex_logS is recorded as 0.2676.

Consider `CC[C@H](C)[C@H](N)C(=O)O` [Isoleucine], for which the ex_logS is given as -0.5813.

Regarding `CN1C(=O)CC(=O)N(c2ccccc2)c2cc(Cl)ccc21` [Clobazam], the ex_logS is given as -3.204.

In the case of `Nc1ccn(C[C@@H](CO)OCP(=O)(O)O)c(=O)n1` [Cidofovir], the ex_logS is on record as -0.2154.

For the molecule `O=C(OCCO)c1ccccc1O` [Glycol salicylate], the ex_logS is on record as -1.143.

Consider `Cc1onc(-c2ccccc2)c1C(=O)N[C@@H]1C(=O)N2[C@@H]1SC(C)(C)[C@@H]2C(=O)O` [Oxacillin], for which the ex_logS is reported as -4.4606.

Take `NC(=O)O[C@@H](Cn1ncnn1)c1ccccc1Cl` [Cenobamate]: the ex_logS was -2.197.

With `C[C@@H]1C[C@H]2[C@@H]3C[C@H](F)C4=CC(=O)C=C[C@]4(C)[C@@]3(F)[C@@H](O)C[C@]2(C)[C@H]1C(=O)CO` [Difluocortolone], the ex_logS is given as -5.289.

Take `CC(=O)OCC1=C(C(=O)O)N2C(=O)[C@@H](NC(=O)[C@H](N)c3ccccc3)[C@H]2SC1` [Cephaloglycin]: the ex_logS is given as -3.42.

`CC(=O)OCC1=C(C(=O)O)N2C(=O)[C@@H](NC(=O)Cc3cccs3)[C@H]2SC1` [Cefalotin]: the ex_logS is given as -3.4.

With `CN(C)[C@@H]1C(O)=C(C(N)=O)C(=O)[C@@]2(O)C(O)=C3C(=O)c4c(O)cccc4[C@@](C)(O)[C@H]3[C@H](O)[C@@H]12` [Oxytetracycline], the ex_logS was -3.168.

Regarding `Cc1onc(-c2c(Cl)cccc2Cl)c1C(=O)N[C@@H]1C(=O)N2[C@@H]1SC(C)(C)[C@@H]2C(=O)O` [Dicloxacillin], the ex_logS is recorded as -5.112.

On to `O=C(CCBr)N1CCN(C(=O)CCBr)CC1` [Pipobroman], for which the ex_logS is -2.155.

Turning to `CCCCCc1cc(O)c2c(c1)OC(C)(C)[C@@H]1CCC(C)=C[C@@H]21` [Dronabinol], the ex_logS is given as -5.05.

Consider `Cc1ccc(C(=O)c2ccc(CC(=O)O)n2C)cc1` [Tolmetin], for which the ex_logS was -3.064.

Consider `C=CC1=C(C)c2cc3[nH]c(cc4nc(cc5[nH]c(cc1n2)c(C)c5CCC(=O)O)C(CCC(=O)O)=C4C)c(C)c3C=C` [Protoporphyrin], for which the ex_logS is on record as -3.522.

Take `CC[C@H](C)C(=O)O[C@H]1C[C@@H](C)C=C2C=C[C@H](C)[C@H](CC[C@@H]3C[C@@H](O)CC(=O)O3)[C@H]21` [Lovastatin]: the ex_logS is listed as -6.0049.

`C[C@]12CC[C@H]3C(=CCc4cc(O)ccc43)[C@@H]1CCC2=O` [Equilin]: the ex_logS is -5.279.

For the molecule `Clc1ccccc1C(c1ccccc1)(c1ccccc1)n1ccnc1` [Clotrimazole], the ex_logS is given as -5.847.

Take `NCCCNCCSP(=O)(O)O` [Amifostine]: the ex_logS was 0.6691.

As for `C[C@@H]1O[C@@H](OC[C@H]2O[C@@H](Oc3c(-c4ccc(O)c(O)c4)oc4cc(O)cc(O)c4c3=O)[C@H](O)[C@@H](O)[C@@H]2O)[C@H](O)[C@H](O)[C@H]1O` [Rutin], the ex_logS is -3.689.

As to `O=C(O)c1ccccc1O` [Salicylic acid], the ex_logS is -1.79.

With `COc1ccc(-n2nc(C(N)=O)c3c2C(=O)N(c2ccc(N4CCCCC4=O)cc2)CC3)cc1` [Apixaban], the ex_logS is -3.621.

`OC[C@H]1O[C@@H](c2ccc(Cl)c(Cc3ccc(O[C@H]4CCOC4)cc3)c2)[C@H](O)[C@@H](O)[C@@H]1O` [Empagliflozin]: the ex_logS is reported as -3.207.

With `CCn1cc(C(=O)O)c(=O)c2cc(F)c(N3CCNCC3)nc21` [Enoxacin], the ex_logS is on record as -1.97.

Consider `N[C@@H](Cc1ccccc1)C(=O)O` [Phenylalanine], for which the ex_logS is reported as -0.7882.

As for `CC1=C(/C=C/C(C)=C/C=C/C(C)=C/C=C/C=C(C)/C=C/C=C(C)/C=C/C2=C(C)CCCC2(C)C)C(C)(C)CCC1` [Beta carotene], the ex_logS is listed as -5.952.

In the case of `Nc1nc2c(ncn2CCC(CO)CO)c(=O)[nH]1` [Penciclovir], the ex_logS is recorded as -2.173.

As to `COc1cc2c(c(OC)c1OC)-c1ccc(OC)c(=O)cc1[C@@H](NC(C)=O)CC2` [Colchicine], the ex_logS is recorded as -0.9632.

In the case of `CC(C)n1c(/C=C/C(O)CC(O)CC(=O)O)c(-c2ccc(F)cc2)c2ccccc21` (stereo not shown) [Fluvastatin], the ex_logS was -5.952.

`COC(=O)N(C)c1c(N)nc(-c2nn(Cc3ccccc3F)c3ncccc23)nc1N` [Riociguat]: the ex_logS is on record as -5.024.

On to `C[C@@](Cc1ccc(O)c(O)c1)(NN)C(=O)O` [Carbidopa], for which the ex_logS was -4.775.

As to `Nc1nc(F)nc2c1ncn2[C@@H]1O[C@H](CO)[C@@H](O)[C@@H]1O` [Fludarabine], the ex_logS is -1.907.

`CC(=O)OCC1=C(C(=O)O)N2C(=O)[C@@H](NC(=O)CSc3ccncc3)[C@H]2SC1` [Cefapirin]: the ex_logS is -2.614.

Turning to `Clc1ccc(C(c2ccccc2Cl)C(Cl)Cl)cc1` (stereo not shown) [Mitotane], the ex_logS is -6.505.

As for `COc1cc(C)c(/C=C/C(C)=C/C=C/C(C)=C/C(=O)O)c(C)c1C` [Acitretin], the ex_logS is listed as -6.651.

`COc1cc(NS(=O)(=O)c2ccc(N)cc2)nc(OC)n1` [Sulfadimethoxine]: the ex_logS was -2.957.

Cyanocobalamin: the ex_logS was -2.035.
